The source of these data is PubChem BioAssay (NCI).

Some test systems named below: SK-MEL-5 melanoma; CCRF-CEM leukemia; NCI/ADR-RES ovarian; SR leukemia; OVCAR-5 ovarian; NCI-H23 lung; TK-10 renal; HCC-2998 colon; HS 578T breast; OVCAR-4 ovarian; SK-MEL-28 melanoma; CAKI-1 renal; SK-MEL-2 melanoma.
Holding throughout (experiment): NCI tumour cell line growth inhibition, 48 h

SMILES strings stand for the structures.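 Cultured in 96-well plates, cells were exposed to test compound for 48 hours across five concentrations. TGI marks complete inhibition of growth.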 *1 amine or outer side, *2 acyl side, *3 side chain or, on linkers, in order; H or OH if unused. Where a SMILES comes first, the peptide text is derived from it. Bridges are numbered along the chain shown (N, C = ends). [ ]: non-standard residue; d: D form. X59 = COc1c(N[*:1])cccc1C(=O)O[C@H](C(=O)[C@H](C)C(=O)[*:2])C(C)C; X58 = CC(C)C[C@H](C(=O)[*:2])C(C)C(=O)C1CCCN1[*:1]; NMeY = CN[C@@H](Cc1ccc(O)cc1)C(=O)O; Lac = C[C@H](O)C(=O)O Where only a bound is given, the exact number is not on record here.

On to `CCNC1=C(NC(=O)c2ccc(OC)cc2)C(=O)c2ccccc2C1=O`, for which the TGI is greater than 100 µM in the assay on SK-MEL-5 melanoma; greater than 100 µM with CCRF-CEM leukemia; 99.5 µM with NCI/ADR-RES ovarian; greater than 100 µM in the assay on SR leukemia; greater than 100 µM with OVCAR-5 ovarian; greater than 100 µM in the assay with NCI-H23 lung. The TGI in the assay on TK-10 renal, in the assay with HCC-2998 colon, in the assay with HS 578T breast, in the assay on OVCAR-4 ovarian and in the assay on SK-MEL-28 melanoma was greater than 100 µM in each case.
As to `Cc1ncc([N+](=O)[O-])n1CCNC(=O)Cn1ccnc1[N+](=O)[O-]`, the TGI with SK-MEL-5 melanoma, in the assay with CCRF-CEM leukemia, in the assay on NCI/ADR-RES ovarian, with SR leukemia, in the assay with OVCAR-5 ovarian and in the assay with CAKI-1 renal was greater than 100 µM throughout. For the same compound, the TGI with SK-MEL-2 melanoma, in the assay with NCI-H23 lung, in the assay with TK-10 renal, in the assay with HCC-2998 colon, in the assay with HS 578T breast and in the assay on SK-MEL-28 melanoma was greater than 100 µM in each case.
With `CC(C)=CC[C@H]1C[C@@]2(CC=C(C)C)C(=O)/C(=C(/O)c3ccccc3)C(=O)[C@](CC=C(C)C)(C2=O)C1(C)C`, the TGI was 17.8 µM with SK-MEL-5 melanoma; 42.2 µM in the assay on NCI/ADR-RES ovarian; greater than 100 µM with SR leukemia; 19.5 µM in the assay on OVCAR-5 ovarian; 28.9 µM with CAKI-1 renal; 8.24 µM in the assay with SK-MEL-2 melanoma. In addition, the TGI in the assay with NCI-H23 lung was determined as 73.9 µM; in the assay with TK-10 renal it was 20.6 µM; with HCC-2998 colon it was 14.4 µM; in the assay on HS 578T breast, 59.6 µM; in the assay with OVCAR-4 ovarian it was 26.4 µM; in the assay on SK-MEL-28 melanoma, 30.3 µM.
As for `CC(=O)c1c2c(cc3c1CC1(C3)Cc3cc4c(c(C(C)=O)c3C1)CCCC4)CCCC2`, the TGI in the assay on SK-MEL-5 melanoma was 35.4 µM; in the assay with CCRF-CEM leukemia, 44 µM; in the assay on NCI/ADR-RES ovarian, greater than 100 µM; with SR leukemia, 53.2 µM; in the assay with OVCAR-5 ovarian, greater than 100 µM; with SK-MEL-2 melanoma, 83.2 µM. For the same compound, the TGI in the assay on NCI-H23 lung, with TK-10 renal, with HCC-2998 colon, in the assay with HS 578T breast and with OVCAR-4 ovarian was greater than 100 µM in each case.
For `COc1ccc(C[C@H]2C(=O)O[C@H](C)[C@H](NC(=O)[C@@H](CC(C)C)C(C)C(=O)C3CCCN3C(=O)[C@H](C)O)C(=O)Nc3cccc(c3OC)C(=O)O[C@@H](C(C)C)C(=O)[C@H](C)C(=O)N[C@@H](CC(C)C)C(=O)N3CCC[C@H]3C(=O)N2C)cc1` (some centres not stated) (H-[Lac][X58]T[X59]LP[NMeY](Me); ester 3-C), the TGI in the assay with SK-MEL-5 melanoma, with NCI/ADR-RES ovarian, in the assay with SR leukemia, with OVCAR-5 ovarian, in the assay on CAKI-1 renal and in the assay on SK-MEL-2 melanoma was greater than 12.5 µM each time. Also, the TGI in the assay with NCI-H23 lung, with TK-10 renal, in the assay with HCC-2998 colon, in the assay on HS 578T breast, in the assay with OVCAR-4 ovarian and in the assay with SK-MEL-28 melanoma was greater than 12.5 µM in each case.
For the compound `Cc1cc(C)nc(NS(=O)(=O)c2ccc(Nc3nnc(/C=C/c4c(O)ccc5ccccc45)c(=O)n3N)cc2)n1`, the TGI with CCRF-CEM leukemia is greater than 100 µM; with NCI/ADR-RES ovarian, 58.3 µM; in the assay with SR leukemia it was 55.6 µM; in the assay with OVCAR-5 ovarian it was 75.4 µM; in the assay with CAKI-1 renal, 59.8 µM; in the assay with NCI-H23 lung, 57.7 µM. The TGI is greater than 100 µM in the assay on HS 578T breast and 85.2 µM with OVCAR-4 ovarian.
Turning to `CC(C)(C)OC(=O)NC(Cc1ccc(OCc2ccccc2)cn1)C(N)=O` (configuration not stated), the TGI with SK-MEL-5 melanoma was 94.2 µM; in the assay on CCRF-CEM leukemia, greater than 100 µM; in the assay on NCI/ADR-RES ovarian it was greater than 100 µM; in the assay on SR leukemia, greater than 100 µM; with OVCAR-5 ovarian it was greater than 100 µM; in the assay on CAKI-1 renal it was greater than 100 µM. The TGI in the assay with NCI-H23 lung, with TK-10 renal, with HCC-2998 colon, with HS 578T breast, with OVCAR-4 ovarian and in the assay on SK-MEL-28 melanoma was greater than 100 µM in each case.
For `CN(C)CCN=C1Nc2ccccc2C(=O)N2CSCC12` (configuration not stated), the TGI in the assay with SK-MEL-5 melanoma, in the assay on CCRF-CEM leukemia, in the assay on NCI/ADR-RES ovarian, in the assay with SR leukemia, in the assay on OVCAR-5 ovarian and in the assay on CAKI-1 renal was greater than 100 µM throughout. Moreover, the TGI with SK-MEL-2 melanoma, in the assay on TK-10 renal, in the assay with HCC-2998 colon, in the assay on HS 578T breast, in the assay on OVCAR-4 ovarian and in the assay with SK-MEL-28 melanoma was greater than 100 µM in each case.
Turning to `Oc1ccccc1-c1n[nH]c(-c2ccccc2O)n1`, the TGI with SK-MEL-5 melanoma, with CCRF-CEM leukemia, with NCI/ADR-RES ovarian, with SR leukemia, in the assay on OVCAR-5 ovarian and with CAKI-1 renal was greater than 100 µM in each case. For the same compound, the TGI in the assay with SK-MEL-2 melanoma is greater than 100 µM; with TK-10 renal it was greater than 100 µM; with HCC-2998 colon it was greater than 96.7 µM; in the assay on HS 578T breast, greater than 100 µM; in the assay with OVCAR-4 ovarian, greater than 100 µM; with SK-MEL-28 melanoma it was greater than 100 µM.
For the compound `CC1(C)CC2C(/C1=N/O)C1(C)CCCC2(C)C1O` (configuration not stated), the TGI in the assay with SK-MEL-5 melanoma, in the assay with CCRF-CEM leukemia, in the assay with NCI/ADR-RES ovarian, in the assay with SR leukemia, in the assay with OVCAR-5 ovarian and in the assay on CAKI-1 renal was greater than 100 µM in each case. Besides, the TGI in the assay with SK-MEL-2 melanoma, with NCI-H23 lung, in the assay with TK-10 renal, in the assay with HS 578T breast, with OVCAR-4 ovarian and in the assay on SK-MEL-28 melanoma was greater than 100 µM throughout.
`N#Cc1nc(-c2ccc(-c3nc(C#N)c(N)o3)cc2)oc1N`: the TGI in the assay on SK-MEL-5 melanoma, in the assay on CCRF-CEM leukemia, in the assay on NCI/ADR-RES ovarian, in the assay with SR leukemia, with CAKI-1 renal and in the assay with NCI-H23 lung was greater than 10 µM each time. Further, the TGI in the assay with TK-10 renal, in the assay on HCC-2998 colon, with HS 578T breast, in the assay with OVCAR-4 ovarian and in the assay with SK-MEL-28 melanoma was greater than 10 µM throughout.
As to `COc1ccc(OC2OC(CO)C(O)C(O)C2O)cc1` (configuration not stated), the TGI in the assay with SK-MEL-5 melanoma, in the assay with CCRF-CEM leukemia, in the assay on NCI/ADR-RES ovarian, in the assay on SR leukemia, in the assay on OVCAR-5 ovarian and in the assay with CAKI-1 renal was greater than 100 µM throughout. The TGI with SK-MEL-2 melanoma, in the assay with NCI-H23 lung, in the assay on TK-10 renal, with HCC-2998 colon, in the assay with HS 578T breast and with SK-MEL-28 melanoma was greater than 100 µM in each case.
